Key:
Assay in all cases: Kinase selectivity panel
Format in all cases: biochemical
PDGFRα(D842V)(h) = molecular target: T1, PDGFRα(D842V)(h) (Homo sapiens, UniProt P16234, D842V); conditions: read-out: Inhibition(%) @ 1 µM RK-019
T1 construct: purchased Eurofins Discovery Services (KinaseProfiler)
Procedure, shortened: (§1)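 Inhibition ratio was measured at 1 µM test compound in an ATP-site competition binding format across 422 recombinant human kinases.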

MYLK2(h) = molecular target: T2, MYLK2(h) (Homo sapiens, UniProt Q9H1R3); conditions: read-out: Inhibition(%) @ 1 µM RK-019
T2 construct: purchased Eurofins Discovery Services (KinaseProfiler)
Procedure, shortened: as §1

A-Raf(h) = molecular target: T3, A-Raf(h) (Homo sapiens, UniProt P10398); conditions: read-out: Inhibition(%) @ 1 µM RK-019
T3 construct: purchased Eurofins Discovery Services (KinaseProfiler)
Procedure, shortened: as §1

NDR2(h) = molecular target: T4, NDR2(h) (Homo sapiens, UniProt Q9Y2H1); conditions: read-out: Inhibition(%) @ 1 µM RK-019
T4 construct: purchased Eurofins Discovery Services (KinaseProfiler)
Procedure, shortened: as §1

HIPK3(h) = molecular target: T5, HIPK3(h) (Homo sapiens, UniProt Q9H422); conditions: read-out: Inhibition(%) @ 1 µM RK-019
T5 construct: purchased Eurofins Discovery Services (KinaseProfiler)
Procedure, shortened: as §1

Met(Y1248D)(h) = molecular target: T6, Met(Y1248D)(h) (Homo sapiens, UniProt P08581, Y1230D); conditions: read-out: Inhibition(%) @ 1 µM RK-019
T6 construct: purchased Eurofins Discovery Services (KinaseProfiler)
Procedure, shortened: as §1

MLK1(h) = molecular target: T7, MLK1(h) (Homo sapiens, UniProt P80192); conditions: read-out: Inhibition(%) @ 1 µM RK-019
T7 construct: purchased Eurofins Discovery Services (KinaseProfiler)
Procedure, shortened: as §1

Lyn(h) = molecular target: T8, Lyn(h) (Homo sapiens, UniProt P07948)
T8 construct: purchased Eurofins Discovery Services (KinaseProfiler)
Procedure, shortened: as §1

CaMKI(h) = molecular target: T9, CaMKI(h) (Homo sapiens, UniProt Q14012); conditions: read-out: Inhibition(%) @ 1 µM RK-019
T9 construct: purchased Eurofins Discovery Services (KinaseProfiler)
Procedure, shortened: as §1

FGFR1(h) = molecular target: T10, FGFR1(h) (Homo sapiens, UniProt P11362)
T10 construct: purchased Eurofins Discovery Services (KinaseProfiler)
Procedure, shortened: as §1

SLK(h) = molecular target: T11, SLK(h) (Homo sapiens, UniProt Q9H2G2); conditions: read-out: Inhibition(%) @ 1 µM RK-019
T11 construct: purchased Eurofins Discovery Services (KinaseProfiler)
Procedure, shortened: as §1

TRB2(h) = molecular target: T12, TRB2(h) (Homo sapiens, UniProt Q92519); conditions: read-out: Inhibition(%) @ 1 µM RK-019
T12 construct: purchased Eurofins Discovery Services (KinaseProfiler)
Procedure, shortened: as §1

LIMK1(h) = molecular target: T13, LIMK1(h) (Homo sapiens, UniProt P53667); conditions: read-out: Inhibition(%) @ 1 µM RK-019
T13 construct: purchased Eurofins Discovery Services (KinaseProfiler)
Procedure, shortened: as §1

CLK1(h) = molecular target: T14, CLK1(h) (Homo sapiens, UniProt P49759); conditions: read-out: Inhibition(%) @ 1 µM RK-019
T14 construct: purchased Eurofins Discovery Services (KinaseProfiler)
Procedure, shortened: as §1

Axl(h) = molecular target: T15, Axl(h) (Homo sapiens, UniProt P30530); conditions: read-out: Inhibition(%) @ 1 µM RK-019
T15 construct: purchased Eurofins Discovery Services (KinaseProfiler)
Procedure, shortened: as §1

LOK(h) = molecular target: T16, LOK(h) (Homo sapiens, UniProt O94804); conditions: read-out: Inhibition(%) @ 1 µM RK-019
T16 construct: purchased Eurofins Discovery Services (KinaseProfiler)
Procedure, shortened: as §1

EGFR(T790M,L858R)(h) = molecular target: T17, EGFR(T790M,L858R)(h) (Homo sapiens, UniProt P00533, L858R/T790M); conditions: read-out: Inhibition(%) @ 1 µM RK-019
T17 construct: purchased Eurofins Discovery Services (KinaseProfiler)
Procedure, shortened: as §1

STK32B(h) = molecular target: T18, STK32B(h) (Homo sapiens, UniProt Q9NY57); conditions: read-out: Inhibition(%) @ 1 µM RK-019
T18 construct: purchased Eurofins Discovery Services (KinaseProfiler)
Procedure, shortened: as §1

[1] = molecular target: T19, PI3 Kinase (p110a(H1047R)/p85a)(m) (Mus musculus, UniProt P42337, H1047R); conditions: read-out: Inhibition(%) @ 1 µM RK-019
T19 construct: purchased Eurofins Discovery Services (KinaseProfiler)

MSSK1(h) = molecular target: T20, MSSK1(h) (Homo sapiens, UniProt Q9UPE1); conditions: read-out: Inhibition(%) @ 1 µM RK-019
T20 construct: purchased Eurofins Discovery Services (KinaseProfiler)
Procedure, shortened: as §1

ULK1(h) = molecular target: T21, ULK1(h) (Homo sapiens, UniProt O75385); conditions: read-out: Inhibition(%) @ 1 µM RK-019
T21 construct: purchased Eurofins Discovery Services (KinaseProfiler)
Procedure, shortened: as §1

MAP4K5(h) = molecular target: T22, MAP4K5(h) (Homo sapiens, UniProt Q9Y4K4); conditions: read-out: Inhibition(%) @ 1 µM RK-019
T22 construct: purchased Eurofins Discovery Services (KinaseProfiler)
Procedure, shortened: as §1

PI3KC2a(h) = molecular target: T23, PI3KC2a(h) (Homo sapiens, UniProt O00443); conditions: read-out: Inhibition(%) @ 1 µM RK-019
T23 construct: purchased Eurofins Discovery Services (KinaseProfiler)
Procedure, shortened: as §1

STK32C(h) = molecular target: T24, STK32C(h) (Homo sapiens, UniProt Q86UX6); conditions: read-out: Inhibition(%) @ 1 µM RK-019
T24 construct: purchased Eurofins Discovery Services (KinaseProfiler)
Procedure, shortened: as §1

Plk4(h) = molecular target: T25, Plk4(h) (Homo sapiens, UniProt O00444); conditions: read-out: Inhibition(%) @ 1 µM RK-019
T25 construct: purchased Eurofins Discovery Services (KinaseProfiler)
Procedure, shortened: as §1

Met(M1268T)(h) = molecular target: T26, Met(M1268T)(h) (Homo sapiens, UniProt P08581, M1250T); conditions: read-out: Inhibition(%) @ 1 µM RK-019
T26 construct: purchased Eurofins Discovery Services (KinaseProfiler)
Procedure, shortened: as §1

MST3(h) = molecular target: T27, MST3(h) (Homo sapiens, UniProt Q9Y6E0); conditions: read-out: Inhibition(%) @ 1 µM RK-019
T27 construct: purchased Eurofins Discovery Services (KinaseProfiler)
Procedure, shortened: as §1

SRPK1(h) = molecular target: T28, SRPK1(h) (Homo sapiens, UniProt Q96SB4); conditions: read-out: Inhibition(%) @ 1 µM RK-019
T28 construct: purchased Eurofins Discovery Services (KinaseProfiler)
Procedure, shortened: as §1

LIMK2(h) = molecular target: T29, LIMK2(h) (Homo sapiens, UniProt P53671); conditions: read-out: Inhibition(%) @ 1 µM RK-019
T29 construct: purchased Eurofins Discovery Services (KinaseProfiler)
Procedure, shortened: as §1

Met(Y1248H)(h) = molecular target: T30, Met(Y1248H)(h) (Homo sapiens, UniProt P08581, Y1230H); conditions: read-out: Inhibition(%) @ 1 µM RK-019
T30 construct: purchased Eurofins Discovery Services (KinaseProfiler)
Procedure, shortened: as §1

PEK(h) = molecular target: T31, PEK(h) (Homo sapiens, UniProt Q9NZJ5); conditions: read-out: Inhibition(%) @ 1 µM RK-019
T31 construct: purchased Eurofins Discovery Services (KinaseProfiler)
Procedure, shortened: as §1

SGK2(h) = molecular target: T32, SGK2(h) (Homo sapiens, UniProt Q9HBY8); conditions: read-out: Inhibition(%) @ 1 µM RK-019
T32 construct: purchased Eurofins Discovery Services (KinaseProfiler)
Procedure, shortened: as §1

DCAMKL2(h) = molecular target: T33, DCAMKL2(h) (Homo sapiens, UniProt Q8N568); conditions: read-out: Inhibition(%) @ 1 µM RK-019
T33 construct: purchased Eurofins Discovery Services (KinaseProfiler)
Procedure, shortened: as §1

PRAK(h) = molecular target: T34, PRAK(h) (Homo sapiens, UniProt Q8IW41); conditions: read-out: Inhibition(%) @ 1 µM RK-019
T34 construct: purchased Eurofins Discovery Services (KinaseProfiler)
Procedure, shortened: as §1

FGFR4(h) = molecular target: T35, FGFR4(h) (Homo sapiens, UniProt P22455)
T35 construct: purchased Eurofins Discovery Services (KinaseProfiler)
Procedure, shortened: as §1

T10 sequence (P11362 22-822): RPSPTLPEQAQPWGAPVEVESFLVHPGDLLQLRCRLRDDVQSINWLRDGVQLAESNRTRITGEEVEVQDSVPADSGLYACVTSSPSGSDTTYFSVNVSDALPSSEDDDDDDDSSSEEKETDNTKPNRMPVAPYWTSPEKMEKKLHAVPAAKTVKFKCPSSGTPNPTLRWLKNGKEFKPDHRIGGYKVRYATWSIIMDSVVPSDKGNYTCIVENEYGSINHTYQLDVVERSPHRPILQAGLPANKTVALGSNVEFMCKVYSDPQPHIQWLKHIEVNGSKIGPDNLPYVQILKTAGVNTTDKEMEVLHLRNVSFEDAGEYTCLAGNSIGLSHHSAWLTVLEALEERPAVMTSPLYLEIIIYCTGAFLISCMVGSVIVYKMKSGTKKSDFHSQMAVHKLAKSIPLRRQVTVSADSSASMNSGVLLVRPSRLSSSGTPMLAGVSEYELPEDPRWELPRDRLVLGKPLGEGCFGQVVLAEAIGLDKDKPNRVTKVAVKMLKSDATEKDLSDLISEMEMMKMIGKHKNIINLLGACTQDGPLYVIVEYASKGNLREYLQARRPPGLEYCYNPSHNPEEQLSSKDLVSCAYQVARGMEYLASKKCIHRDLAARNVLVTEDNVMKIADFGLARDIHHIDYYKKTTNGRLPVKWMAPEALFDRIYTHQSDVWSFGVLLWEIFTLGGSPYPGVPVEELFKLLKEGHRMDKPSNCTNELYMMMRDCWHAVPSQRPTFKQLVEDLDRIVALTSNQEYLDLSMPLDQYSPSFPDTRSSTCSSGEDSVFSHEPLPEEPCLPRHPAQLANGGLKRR
T8 sequence (P07948 whole entry): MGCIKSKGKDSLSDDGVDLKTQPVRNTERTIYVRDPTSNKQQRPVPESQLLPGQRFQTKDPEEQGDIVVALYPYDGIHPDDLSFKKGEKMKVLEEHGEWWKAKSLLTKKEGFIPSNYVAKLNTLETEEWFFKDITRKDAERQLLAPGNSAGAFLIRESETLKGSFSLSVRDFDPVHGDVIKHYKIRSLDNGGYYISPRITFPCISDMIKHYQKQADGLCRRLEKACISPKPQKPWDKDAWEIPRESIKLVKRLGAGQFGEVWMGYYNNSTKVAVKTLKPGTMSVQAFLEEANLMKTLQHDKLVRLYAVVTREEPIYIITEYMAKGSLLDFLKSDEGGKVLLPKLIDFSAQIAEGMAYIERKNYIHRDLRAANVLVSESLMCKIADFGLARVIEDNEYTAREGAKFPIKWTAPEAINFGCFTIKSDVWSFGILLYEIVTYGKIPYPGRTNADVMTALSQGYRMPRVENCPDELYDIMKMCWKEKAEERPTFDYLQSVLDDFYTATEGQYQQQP
T35 sequence (P22455 22-802): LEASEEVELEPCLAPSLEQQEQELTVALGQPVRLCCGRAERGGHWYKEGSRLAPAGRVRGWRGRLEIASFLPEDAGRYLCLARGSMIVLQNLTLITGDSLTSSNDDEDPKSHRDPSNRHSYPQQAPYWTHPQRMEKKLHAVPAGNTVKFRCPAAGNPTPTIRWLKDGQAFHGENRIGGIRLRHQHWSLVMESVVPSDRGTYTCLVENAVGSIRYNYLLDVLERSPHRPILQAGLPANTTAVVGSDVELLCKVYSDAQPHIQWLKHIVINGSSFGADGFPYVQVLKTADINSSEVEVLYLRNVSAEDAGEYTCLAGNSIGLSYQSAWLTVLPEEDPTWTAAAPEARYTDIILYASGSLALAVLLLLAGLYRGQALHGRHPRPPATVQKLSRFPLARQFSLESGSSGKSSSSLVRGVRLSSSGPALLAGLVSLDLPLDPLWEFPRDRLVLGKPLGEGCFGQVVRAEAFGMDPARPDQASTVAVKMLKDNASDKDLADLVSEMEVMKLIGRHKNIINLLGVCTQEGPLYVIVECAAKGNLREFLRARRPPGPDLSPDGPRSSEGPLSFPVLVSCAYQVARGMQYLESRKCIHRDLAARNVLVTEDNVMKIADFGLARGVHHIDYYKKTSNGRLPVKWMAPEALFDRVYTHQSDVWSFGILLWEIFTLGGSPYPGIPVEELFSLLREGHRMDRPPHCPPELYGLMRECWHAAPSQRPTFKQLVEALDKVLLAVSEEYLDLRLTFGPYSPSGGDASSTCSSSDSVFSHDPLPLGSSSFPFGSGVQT
T18 sequence (Q9NY57 whole entry): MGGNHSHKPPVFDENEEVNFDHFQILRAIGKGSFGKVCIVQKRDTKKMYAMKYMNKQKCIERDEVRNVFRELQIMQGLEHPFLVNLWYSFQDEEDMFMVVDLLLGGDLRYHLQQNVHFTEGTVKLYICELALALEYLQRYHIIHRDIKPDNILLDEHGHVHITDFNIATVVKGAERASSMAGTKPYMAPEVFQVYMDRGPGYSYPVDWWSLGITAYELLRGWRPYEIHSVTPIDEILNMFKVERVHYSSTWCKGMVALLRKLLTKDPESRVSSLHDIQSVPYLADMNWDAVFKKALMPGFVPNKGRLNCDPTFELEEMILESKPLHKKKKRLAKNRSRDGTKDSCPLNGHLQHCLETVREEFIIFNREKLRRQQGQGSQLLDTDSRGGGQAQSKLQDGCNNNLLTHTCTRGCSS
T21 sequence (O75385 whole entry): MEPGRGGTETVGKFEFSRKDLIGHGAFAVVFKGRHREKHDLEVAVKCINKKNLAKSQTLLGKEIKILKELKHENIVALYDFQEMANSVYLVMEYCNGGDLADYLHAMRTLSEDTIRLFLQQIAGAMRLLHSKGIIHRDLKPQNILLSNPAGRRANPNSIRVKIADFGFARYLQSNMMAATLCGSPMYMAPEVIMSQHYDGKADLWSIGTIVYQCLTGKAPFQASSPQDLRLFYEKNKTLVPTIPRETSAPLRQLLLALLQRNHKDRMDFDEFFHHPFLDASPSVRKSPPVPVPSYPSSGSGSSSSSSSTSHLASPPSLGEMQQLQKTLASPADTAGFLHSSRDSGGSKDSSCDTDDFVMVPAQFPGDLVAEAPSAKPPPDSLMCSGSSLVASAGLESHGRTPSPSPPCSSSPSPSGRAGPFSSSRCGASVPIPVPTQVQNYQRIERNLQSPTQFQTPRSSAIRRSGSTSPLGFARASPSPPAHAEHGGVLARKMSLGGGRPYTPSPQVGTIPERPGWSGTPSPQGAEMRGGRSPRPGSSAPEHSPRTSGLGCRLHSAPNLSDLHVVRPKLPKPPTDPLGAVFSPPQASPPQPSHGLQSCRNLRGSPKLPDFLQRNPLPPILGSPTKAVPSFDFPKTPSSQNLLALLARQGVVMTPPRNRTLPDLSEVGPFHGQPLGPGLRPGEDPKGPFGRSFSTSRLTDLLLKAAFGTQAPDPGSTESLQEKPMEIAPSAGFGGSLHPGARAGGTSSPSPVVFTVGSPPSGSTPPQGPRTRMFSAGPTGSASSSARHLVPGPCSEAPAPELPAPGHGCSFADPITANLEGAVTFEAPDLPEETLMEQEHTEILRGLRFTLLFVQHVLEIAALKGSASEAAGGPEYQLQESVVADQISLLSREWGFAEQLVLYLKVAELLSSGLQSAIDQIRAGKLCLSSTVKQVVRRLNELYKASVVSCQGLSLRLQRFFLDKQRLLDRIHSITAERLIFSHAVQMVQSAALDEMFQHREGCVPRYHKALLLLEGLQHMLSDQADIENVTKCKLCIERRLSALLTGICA
T5 sequence (Q9H422 whole entry): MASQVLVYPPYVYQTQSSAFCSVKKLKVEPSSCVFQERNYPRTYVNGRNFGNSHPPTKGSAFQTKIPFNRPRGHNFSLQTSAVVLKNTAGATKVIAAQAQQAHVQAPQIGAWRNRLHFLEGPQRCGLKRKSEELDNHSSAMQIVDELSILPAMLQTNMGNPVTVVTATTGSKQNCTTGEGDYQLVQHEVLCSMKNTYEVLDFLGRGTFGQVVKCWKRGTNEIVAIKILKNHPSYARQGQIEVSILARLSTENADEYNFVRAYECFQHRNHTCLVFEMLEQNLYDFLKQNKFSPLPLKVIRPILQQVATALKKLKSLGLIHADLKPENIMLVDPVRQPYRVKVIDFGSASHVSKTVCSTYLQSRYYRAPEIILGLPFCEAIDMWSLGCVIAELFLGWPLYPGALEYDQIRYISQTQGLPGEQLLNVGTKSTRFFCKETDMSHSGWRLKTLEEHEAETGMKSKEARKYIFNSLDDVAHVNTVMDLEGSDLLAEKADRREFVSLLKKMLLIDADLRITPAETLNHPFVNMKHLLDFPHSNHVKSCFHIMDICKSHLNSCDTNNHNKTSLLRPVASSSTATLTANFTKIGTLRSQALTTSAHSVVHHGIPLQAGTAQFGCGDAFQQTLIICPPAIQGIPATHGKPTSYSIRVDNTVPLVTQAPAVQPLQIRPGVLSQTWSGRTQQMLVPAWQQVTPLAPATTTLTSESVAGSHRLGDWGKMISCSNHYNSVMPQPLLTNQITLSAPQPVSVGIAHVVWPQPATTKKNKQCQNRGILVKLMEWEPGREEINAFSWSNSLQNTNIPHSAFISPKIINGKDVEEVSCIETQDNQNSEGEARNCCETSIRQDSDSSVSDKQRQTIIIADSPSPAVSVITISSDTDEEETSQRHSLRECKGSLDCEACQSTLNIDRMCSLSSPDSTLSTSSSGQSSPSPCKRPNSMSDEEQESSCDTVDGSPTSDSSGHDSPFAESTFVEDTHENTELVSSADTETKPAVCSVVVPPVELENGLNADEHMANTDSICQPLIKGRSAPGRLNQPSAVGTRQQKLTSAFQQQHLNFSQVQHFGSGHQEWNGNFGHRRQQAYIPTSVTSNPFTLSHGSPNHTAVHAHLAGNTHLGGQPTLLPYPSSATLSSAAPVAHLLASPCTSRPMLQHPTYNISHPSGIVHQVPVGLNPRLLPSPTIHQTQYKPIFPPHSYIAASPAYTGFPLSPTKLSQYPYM

With `COc1cc(OC)cc(N(CCN[C@H](C)CO)c2ccc3ncc(-c4cnn(C)c4)c(=O)n3c2)c1` [RK-019, (R)-7-((3,5-dimethoxyphenyl) (2-((1-hydroxypropan-2-yl)amino)ethyl)amino)-3-(1-methyl-1H-pyrazol-4-yl)-4H-pyrido [1,2-a]pyrimidin-4-one] as the compound, how does the activity at 1 µM (PDGFRα(D842V)(h)) read?
The activity at 1 µM was 22%.

And the activity at 1 µM (MYLK2(h))?
The activity at 1 µM was 88%.

What about the activity at 1 µM (A-Raf(h)) of the same compound?
The activity at 1 µM was 133%.

And the activity at 1 µM (NDR2(h))?
Its activity at 1 µM is 108%.

And the activity at 1 µM (HIPK3(h))?
The activity at 1 µM was 94%.

And the activity at 1 µM (Met(Y1248D)(h))?
The activity at 1 µM was 103%.

And the activity at 1 µM (MLK1(h))?
Its activity at 1 µM is 99%.

What about the inhibition at 1 µM (Lyn(h); LYN, 1 µM, read-out: inhibition (hit in panel)) of the same compound?
Its inhibition at 1 µM is > 90%.

And the activity at 1 µM (Lyn(h); Lyn(h), read-out: Inhibition(%) @ 1 µM RK-019)?
The activity at 1 µM was 6%.

What about the activity at 1 µM (CaMKI(h)) of the same compound?
The activity at 1 µM was 101%.

What about the activity at 1 µM (FGFR1(h); FGFR1(h), read-out: Inhibition(%) @ 1 µM RK-019) of the same compound?
The activity at 1 µM was -1%.

What about the inhibition at 1 µM (FGFR1(h); FGFR1, 1 µM, read-out: inhibition (hit in panel)) of the same compound?
Its inhibition at 1 µM is > 90%.

And the activity at 1 µM (SLK(h))?
Its activity at 1 µM is 99%.

And the activity at 1 µM (TRB2(h))?
Its activity at 1 µM is 136%.

And the activity at 1 µM (LIMK1(h))?
Its activity at 1 µM is 103%.

And the activity at 1 µM (CLK1(h))?
The activity at 1 µM was 104%.

And the activity at 1 µM (Axl(h))?
The activity at 1 µM was 116%.

And the activity at 1 µM (LOK(h))?
The activity at 1 µM was 76%.

What about the activity at 1 µM (EGFR(T790M,L858R)(h)) of the same compound?
Its activity at 1 µM is 92%.

And the activity at 1 µM (STK32B(h))?
Its activity at 1 µM is 123%.

And the activity at 1 µM [1]?
Its activity at 1 µM is 100%.

And the activity at 1 µM (MSSK1(h))?
Its activity at 1 µM is 135%.

And the activity at 1 µM (ULK1(h))?
The activity at 1 µM was 105%.

And the activity at 1 µM (MAP4K5(h))?
Its activity at 1 µM is 103%.

And the activity at 1 µM (PI3KC2a(h))?
The activity at 1 µM was 104%.

What about the activity at 1 µM (STK32C(h)) of the same compound?
Its activity at 1 µM is 72%.

What about the activity at 1 µM (Plk4(h)) of the same compound?
The activity at 1 µM was 91%.

What about the activity at 1 µM (Met(M1268T)(h)) of the same compound?
Its activity at 1 µM is 71%.

And the activity at 1 µM (MST3(h))?
The activity at 1 µM was 122%.

What about the activity at 1 µM (SRPK1(h)) of the same compound?
Its activity at 1 µM is 112%.

And the activity at 1 µM (LIMK2(h))?
The activity at 1 µM was 98%.

What about the activity at 1 µM (Met(Y1248H)(h)) of the same compound?
Its activity at 1 µM is 113%.

And the activity at 1 µM (PEK(h))?
The activity at 1 µM was 85%.

What about the activity at 1 µM (SGK2(h)) of the same compound?
The activity at 1 µM was 79%.

And the activity at 1 µM (DCAMKL2(h))?
The activity at 1 µM was 126%.

What about the activity at 1 µM (PRAK(h)) of the same compound?
The activity at 1 µM was 95%.

What about the activity at 1 µM (FGFR4(h); FGFR4(h), read-out: Inhibition(%) @ 1 µM RK-019) of the same compound?
The activity at 1 µM was 5%.

What about the inhibition at 1 µM (FGFR4(h); FGFR4, 1 µM, read-out: inhibition (hit in panel)) of the same compound?
Its inhibition at 1 µM is > 90%.
